Structures can show the parent of a compound that is named as a salt.
Tests used:
HT-29 cells [1] = test: CellTiter-Glo luminescent cell viability assay (ATP content); type: cell-based; conditions: Homo sapiens; HT-29, 72 hours; concentration not stated in b112 (FIG. 2: most cytotoxic at 10 mM)
Description: Cell viability was also assessed using the CellTiter-Glo R: Assay kit, which measures the amount of ATP to indicate cellular metabolic activity. HT-29 and HCT-116 cells were cultured in a 96-well plate at a density of 2500 cells per well. After 24 hours of seeding, the cells were exposed to various concentrations of IS, including 0.018 mM, 0.037 mM, 0.075 mM. 0.15 mM, 0.31 mM, 0.62 mM, 1.25 mM, 2.5 mM, 5 mM, and 10 mM. Triplicate wells were treated with IS for two different incubation periods: 48 hours and 72 hours. After the respective incubation periods. the assay was performed following the manufacturer's protocol. The details of the protocol can be found in the kit provided by the manufacturer. In summary, luminescence was measured using a Sirius Luminometer V3.2 (Berthold DETECTIONN SYSTEMS) with a measurement delay time of 2 seconds and a measurement time of 5 seconds. Non-treated cells were used as controls, representing 100% metabolically active cells in terms of ATP content.

HT-29 cells [2] = test: Cellular imaging (cell morphology); type: cell-based, human; conditions: HT-29, 1.25-10 mM, 24, 48, 72 hours
Description: (§1) To assess the morphological changes of the cells following treatment, HT-29 and HCT-116 cells were cultured in 12-well plates at a concentration of […] cells per well. After 24 hours of seeding, the cells were treated with IS at concentrations of 1.25 mM, 5 mM, and 10 mM. The cells were exposed to IS in triplicate for three different incubation periods: 24 hours, 48 hours, and 72 hours. After the respective incubation periods, the cells were examined using a Nikon microscope equipped with a 20× objective. Images were captured using a digital camera and the NIS-Elements 3.0 software.

HCT-116 cells [3] = test: Cellular imaging (cell morphology); type: cell-based, human; conditions: HCT-116, 1.25-10 mM, 24, 48, 72 hours
Description: as §1

[4] = system: human adenocarcinoma cells; test: Oxidative stress by DHE staining; type: cell-based; conditions: DHE staining after 48 hours of treatment
Description: In the in vitro study, cells were exposed to various doses of indoxyl sulfate ranging from 0.038 mM to 10 mM for three different incubation periods (24 hours, 48 hours, and 72 hours). A decrease in cell proliferation efficiency was observed after 48 hours of treatment, with the most significant effects observed at concentrations of 5 mM and 10 mM of indoxyl sulfate. […] Decrease in cellular ATP content indicates the diminished cellular metabolic activity and may be linked with cell death. Considering these findings. the apoptotic effect of indoxyl sulfate was examined. […] Another study on the osteoblast cell line MC3T3-E1 also confirmed that IS acts as a bone toxin by inducing cell apoptosis and inhibiting differentiation. […] To account for this study. cells were also assessed for oxidative stress in this invention by staining them with […] (DHE) after 48 hours of treatment. […] The potential for IS to cause DNA damage was also investigated.

HT-29 cells [5] = test: Cell viability by MTT assay; type: cell-based, human; conditions: for viability at 10000 µM: Homo sapiens, HT-29, 10 mM, untreated = 100%
Description: (§2) Human colon epithelial adenocarcinoma cell lines, HT-29 and HCT-116 (procured from ATCC), are commonly utilized for CRC research. HT-29 cells were cultured in McCoy 5A media (Gibco) supplemented with 10% heat-inactivated FBS (Gibco) and penicillin-streptomycin (Sigma-Aldrich: Merck KGaA, Germany). On the other hand, HCT-116 cells were cultured in Dulbecco's modified Eagle's medium-F12 nutrient mixture (DMEM-F12: Gibco) supplemented with 10% heat-inactivated FBS (Gibco) and penicillin-streptomycin (Sigma-Aldrich: Merck KGaA, Germany). The cells were incubated in a humidified incubator at 37° C. with 5% CO2.
(§3) To evaluate the impact of IS treatment, cell viability was assessed using Thiazolyl Blue Tetrazolium Bromide (MTT) dye. HT-29 and HCT-116 cells were seeded at a density of 3000 cells per well in a 96-well plate. After 24 hours of seeding, the cells were exposed to various concentrations of IS, including 0.018 mM, 0.037 mM, 0.075 mM, 0.15 mM. 0.31 mM, 0.62 mM. 1.25 mM, 2.5 mM, 5 mM, and 10 mM. Triplicate wells were treated with IS for three different incubation periods: 24 hours, 48 hours, and 72 hours. After the respective incubation periods. 20 μl of MTT dye (5 mg/ml) was added to each well and incubated for 3 hours. The yellow MTT dye is converted into purple formazan crystals by the mitochondrial succinate dehydrogenase enzyme, NAD (P) H. Following the incubation, 100 μl of dimethyl sulphoxide (DMSO) was added to dissolve the formazan crystals. Formazan crystal dissolve immediately after adding DMSO, so taken the reading just after adding the DMSO. The intensity of the purple color is directly proportional to cell viability. Absorbance was measured at 570 nm using a Multiskan Sky microplate spectrophotometer (Thermo Scientific). Non-treated cells served as controls and were considered 100% viable.

HCT-116 cells [6] = test: Cell viability by MTT assay; type: cell-based, human; conditions: for viability at 10000 µM: Homo sapiens, HCT-116, 10 mM, untreated = 100%
Description: as §2, §3

[7] = system: inflammatory cytokines IL-17A, IL-1β and TNF-α; test: Cytokine study (ELISA of blood samples); type: in vivo, mice; conditions: IP and IR, zero, 1 month, 2 month
Description: Each group consisted of six mice. […] For the cytokine study, blood samples were collected from the mice. The cytokines of interest, IL-1β, TNF-α, and IL-17A, were analyzed in all groups at three different time points: baseline (time point zero), one month, and two months. The analysis was performed using an ELISA kit from R&D Systems. The experimental procedure for cytokine study followed the instructions provided with the kit. In summary, each well of the ELISA plate was coated with a specific monoclonal antibody against the respective cytokines. Then, 50 ul of standard, control, and sample were added to the appropriate wells. The plate was incubated at room temperature (RT) for 2 hours. After incubation, each well was washed four times with 400 ul of buffer to remove any unbound substances. Subsequently, 100 ul of the secondary antibody conjugate was added to each well and incubated at RT for another 2 hours. Following the second incubation, the wells were washed four times, and 100 ul of substrate solution was added. The plate was then incubated for 30 minutes at RT in the dark. After incubation, 100 ul of stop solution was added to each well to halt the enzymatic reaction. The optical density (OD) of the samples was measured at wavelengths of 450 nm and 570 nm within 30 minutes of adding the stop solution. To obtain the final readings, the absorbance at 570 nm was subtracted from the absorbance at 450 nm.

Structure (SMILES): O=S(=O)(O)Oc1c[nH]c2ccccc12 [IS, Indoxyl Sulfate]
- viability at 10000 µM (HT-29 cells [1]): 19%
- cell morphology (HT-29 cells [2]): rounded morphology, reduced cell numbers, and detachment from the culture substrate
- cell morphology (HCT-116 cells [3]): rounded morphology, reduced cell numbers, and detachment from the culture substrate
- production of ROS [4]: did not cause any production of ROS
- cell viability (HT-29 cells [5]; 0.62 mM, cell line not given): cell viability unexpectedly increased
- viability at 10000 µM (HT-29 cells [5]; 24 hours): 41%
- viability at 10000 µM (HT-29 cells [5]; 48 hours): 30%
- viability at 10000 µM (HT-29 cells [5]; 72 hours): 17%
- cell viability (HCT-116 cells [6]; 0.62 mM, cell line not given): cell viability unexpectedly increased
- viability at 10000 µM (HCT-116 cells [6]; 24 hours): 30%
- viability at 10000 µM (HCT-116 cells [6]; 48 hours): 7%
- viability at 10000 µM (HCT-116 cells [6]; 72 hours): 4%
- level of IL-1β vs control groups [7]: no significant differences
- level of IL-17A vs control groups [7]: no significant differences
- level of TNF-α vs control groups [7]: no significant differences
